PubChem BioAssay (NCI)
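Values below derive from 48-hour exposures of cells grown in 96-well plates, with endpoints linearly interpolated between the two concentrations bracketing the appropriate inhibition level. Definition used: TGI = concentration required for complete inhibition of growth.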

Columns and labels:
Test in all cases: DTP human tumour cell line panel, 48 h
[1] = system: 786-0 renal
[2] = system: A498 renal
[3] = system: ACHN renal
[4] = system: CAKI-1 renal
[5] = system: CCRF-CEM leukemia
[6] = system: DU-145 prostate
[7] = system: EKVX NSCLC
[8] = system: HCC-2998 colon
[9] = system: HCT-116 colon
[10] = system: HCT-15 colon
[11] = system: HL-60(TB) leukemia
[12] = system: HOP-62 NSCLC
[13] = system: HOP-92 NSCLC
[14] = system: HS 578T breast
[15] = system: HT29 colon
[16] = system: IGROV1 ovarian
[17] = system: K-562 leukemia
[18] = system: KM12 colon
[19] = system: LOX IMVI melanoma
[20] = system: M14 melanoma
[21] = system: MCF7 breast
[22] = system: MDA-MB-231 breast
[23] = system: MDA-MB-435
[24] = system: MDA-N
[25] = system: MOLT-4 leukemia
[26] = system: NCI-H226 lung
[27] = system: NCI-H23 lung
[28] = system: NCI-H460 lung
[29] = system: NCI-H522 lung
[30] = system: NCI/ADR-RES ovarian
[31] = system: OVCAR-3 ovarian
[32] = system: OVCAR-4 ovarian
[33] = system: OVCAR-5 ovarian
[34] = system: OVCAR-8 ovarian
[35] = system: PC-3 prostate
[36] = system: RPMI-8226 leukemia
[37] = system: RXF 393 renal
[38] = system: SF-268 CNS
[39] = system: SF-295 CNS
[40] = system: SF-539 CNS
[41] = system: SK-MEL-2 melanoma
[42] = system: SK-MEL-28 melanoma
[43] = system: SK-MEL-5 melanoma
[44] = system: SK-OV-3 ovarian
[45] = system: SR leukemia
[46] = system: SW-620 colon
[47] = system: T-47D breast
[48] = system: TK-10 renal
[49] = system: U251 CNS
[50] = system: UACC-257 melanoma
[51] = system: UO-31 renal
[52] = system: A549 NSCLC
[53] = system: BT-549 breast
[54] = system: COLO 205 colon
[55] = system: MALME-3M melanoma
[56] = system: SN12C renal
[57] = system: SNB-19 CNS
[58] = system: SNB-75 CNS
[59] = system: UACC-62 melanoma

Measured: TGI

CC1=NN(c2nc(N)nc(/C(C#N)=C\c3csc([N+](=O)[O-])c3)n2)C(C)(C)C1
64.6 µM: [12]
81 µM: [41]
76 µM: [26]
56.9 µM: [47]
56.4 µM: [32]
64.7 µM: [34]
64 µM: [22]
32.2 µM: [1]
50.1 µM: [29]
95.5 µM: [48]
97.5 µM: [27]
90.1 µM: [7]
41.5 µM: [35]
39.4 µM: [49]
44.7 µM: [37]
54.9 µM: [14]
53.4 µM: [38]
98.9 µM: [24]
78.9 µM: [31]
70.3 µM: [30]
not listed: [52] | [53] | [54] | [55] | [56] | [57] | [58] | [59]
> 100 µM: all other assays above

CC(C)(C)C1=CC(C)(n2[nH]c(=O)n(-c3ccccc3)c2=O)C=C(C(C)(C)C)C1=O
not listed: [5] | [7] | [11] | [12] | [16] | [20] | [25] | [31] | [33] | [37] | [45]
> 100 µM: all other assays above
